Consider 16 compounds from patent US7235569B2, “Piperidinyl indole and tetrohydropyridinyl indole derivatives and method of their use” (Wyeth, priority 2003, dated 2007).

The Ki is the equilibrium dissociation constant of an inhibitor or competing ligand from its target. One may read the inhibition as the change of the read-out against control, counted positive when it falls. As a reminder, the melting point is the temperature of the solid-liquid transition.

One data set deals with T1, human 5-HT1A receptors (Homo sapiens, UniProt P08908).
T1 construct: expressed in transfected cells
T1 sequence (P08908 1-422): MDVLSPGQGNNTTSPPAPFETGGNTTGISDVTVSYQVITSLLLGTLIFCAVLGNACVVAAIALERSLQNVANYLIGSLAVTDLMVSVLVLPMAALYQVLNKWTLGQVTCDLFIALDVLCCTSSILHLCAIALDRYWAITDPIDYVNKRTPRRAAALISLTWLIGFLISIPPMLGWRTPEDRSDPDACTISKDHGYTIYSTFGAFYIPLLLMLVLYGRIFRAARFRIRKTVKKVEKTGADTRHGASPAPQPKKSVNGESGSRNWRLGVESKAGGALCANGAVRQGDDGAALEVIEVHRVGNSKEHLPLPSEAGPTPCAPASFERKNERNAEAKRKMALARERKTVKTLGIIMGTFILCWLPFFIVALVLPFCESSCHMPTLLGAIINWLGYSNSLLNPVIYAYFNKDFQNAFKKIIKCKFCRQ
The data set can be described thus: [3H] 8-OH-DPAT displacement from 5-HT1A receptor (CHO cells stably transfected). It counts as binding. Particulars: for inhibition at 1 µM: read-out: 5-HT1A % inhibition at 1 μM, cells marked * in the 5-HT1A column.

In a further data set the target is T2, 5-HT transporter (Rattus norvegicus, UniProt P31652).
T2 construct: frontal cortical membranes prepared from male S.D. rats; from tissue; host or cells: frontal cortical membranes of male Sprague-Dawley rats
T2 sequence (P31652 whole entry): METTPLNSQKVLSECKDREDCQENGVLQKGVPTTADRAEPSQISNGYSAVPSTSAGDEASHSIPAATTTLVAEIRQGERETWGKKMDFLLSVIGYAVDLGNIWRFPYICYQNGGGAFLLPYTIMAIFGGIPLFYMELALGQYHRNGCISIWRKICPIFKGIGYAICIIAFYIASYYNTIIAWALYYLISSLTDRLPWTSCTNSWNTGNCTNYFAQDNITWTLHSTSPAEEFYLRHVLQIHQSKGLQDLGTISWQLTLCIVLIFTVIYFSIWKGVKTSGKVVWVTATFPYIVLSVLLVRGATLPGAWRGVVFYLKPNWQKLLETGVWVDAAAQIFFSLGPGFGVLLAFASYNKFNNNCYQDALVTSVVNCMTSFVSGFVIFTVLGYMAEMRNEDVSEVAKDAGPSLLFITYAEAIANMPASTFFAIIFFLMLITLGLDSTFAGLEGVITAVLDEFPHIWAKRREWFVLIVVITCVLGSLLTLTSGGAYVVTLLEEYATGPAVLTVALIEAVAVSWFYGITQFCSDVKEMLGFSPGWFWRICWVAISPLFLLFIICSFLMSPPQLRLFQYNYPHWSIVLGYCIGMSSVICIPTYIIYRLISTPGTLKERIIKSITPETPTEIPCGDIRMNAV
The experiment in a line: Rat Brain 3H-Paroxetine Binding Assay (RB 5HT Transporter). The procedure: Rat Brain ^3H-Paroxetine Binding Assay (RB 5HT Transporter)
This assay was used to determine a compound's affinity of the 5-HT transporter. […] Briefly, frontal cortical membranes prepared from male S.D. rats were incubated with ^3H-parxetine (0.1 nM) for 60 min. at 25° C. All tubes also contained either vehicle, test compound (one to eight concentrations), or a saturating concentration of fluoxetine (10 μM) to define […]. All reactions are terminated by the addition of ice cold Tris buffer followed by rapid filtration using a Tom Tech filtration device to separate bound from free ^3H-paroxetine.

Another data set concerns the target Human 5-HT Transporter (Homo sapiens, UniProt P31645). The experiment in a line: cell-based.
Setting [1] is: rat frontal cortical membranes, 3H-paroxetine 0.1 nM, read-out: RB-5HT Transporter Ki.

Read-outs that look alike come from different tables or passages of the source.

Chain of Human 5-HT Transporter (P31645 whole entry): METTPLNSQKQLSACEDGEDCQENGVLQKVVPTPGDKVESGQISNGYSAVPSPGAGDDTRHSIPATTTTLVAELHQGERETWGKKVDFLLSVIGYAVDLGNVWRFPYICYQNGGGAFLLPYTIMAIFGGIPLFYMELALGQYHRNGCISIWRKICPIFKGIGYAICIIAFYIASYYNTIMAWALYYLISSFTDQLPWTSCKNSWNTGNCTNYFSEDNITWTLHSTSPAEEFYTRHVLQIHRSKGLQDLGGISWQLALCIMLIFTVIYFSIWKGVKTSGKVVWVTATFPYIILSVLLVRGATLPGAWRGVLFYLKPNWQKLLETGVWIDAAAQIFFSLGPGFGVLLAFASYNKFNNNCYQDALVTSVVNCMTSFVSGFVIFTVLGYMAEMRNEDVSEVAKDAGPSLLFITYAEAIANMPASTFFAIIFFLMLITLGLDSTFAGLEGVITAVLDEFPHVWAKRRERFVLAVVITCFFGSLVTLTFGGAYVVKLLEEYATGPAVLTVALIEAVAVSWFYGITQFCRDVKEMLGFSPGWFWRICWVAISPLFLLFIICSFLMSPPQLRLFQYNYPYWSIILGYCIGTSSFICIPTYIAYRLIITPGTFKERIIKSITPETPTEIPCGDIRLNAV
Method for Human 5-HT Transporter: On the day of assay, vehicle, excess of fluoxetine, or test compound is added to various wells on the plate. All wells then receive ^3H-5-HT and are incubated at 37° C. for 5 min. The wells are then washed with ice cold 50 mM Tris HCl (pH 7.4) buffer and aspirated to remove free ^3H-5-HT. 25 μl of 0.25 M NaOH is then added to each well to lyse the cells and 75 μl scintillation cocktail (Microscint™ 20) added prior to quantitation on a Packard TopCount machine. Tubes with vehicle represent total possible uptake, radioactivity counted in tubes with fluoxetine represent nonspecific binding/uptake and is subtracted from the total possible uptake to give total possible specific uptake. […] Specific uptake is then expressed as a % of control values and is analyzed using nonlinear regression analysis (Prizm) to determine IC50 values.

`Cn1cc(C2=CCN(CCc3csc4ccccc34)CC2)c2ccccc21` [Compound 30, 3-{1-[2-(1-benzothiophene-3-yl)ethyl]-1,2,3,6-tetrahydro-4-pyridinyl}-1-methyl-1H-indole]: the inhibition constant Ki was determined as 53.1 nM at human 5-HT1A receptors, 13 nM at 5-HT transporter and 421 nM on Human 5-HT Transporter.
As for `Clc1ccc2scc(CCN3CC=C(c4c[nH]c5ccccc45)CC3)c2c1` [Compound 31, 3-{1-[2-(5-chloro-1-benzothiophene-3-yl)ethyl]-1,2,3,6-tetrahydro-4-pyridinyl}-1H-indole], the inhibition at 1 µM at human 5-HT1A receptors stood at 29%. Further, the Ki amounted to 172 nM on 5-HT transporter (setting [1]) and 2900 nM at Human 5-HT Transporter.
`CC(CN1CC=C(c2c[nH]c3ccccc23)CC1)c1coc2ccccc12` (centres unmarked) [Compound 35, 3-{1-[2-(1-benzofuran-3-yl)propyl]-1,2,3,6-tetrahydro-4-pyridinyl}-1H-indole]: at human 5-HT1A receptors, the inhibition at 1 µM amounted to 28%. The Ki on 5-HT transporter worked out at 16 nM; on Human 5-HT Transporter, 130 nM.
Take `C=CCn1cc(C2=CCN(CCc3csc4ccccc34)CC2)c2ccccc21` [Compound 29, 3-{1-[2-(1-benzothiophene-3-yl)ethyl]-1,2,3,6-tetrahydro-4-pyridinyl}-1-(2-propenyl)-1H-indole]: the inhibition constant Ki is 243 nM on human 5-HT1A receptors ([3H] 8-OH-DPAT displacement, CHO cells with human 5-HT1A, read-out: 5-HT1A Ki); 104 nM on 5-HT transporter (setting [1]); 1120 nM at Human 5-HT Transporter.
`COc1cccc2c(CC(C)N3CC=C(c4c[nH]c5ccccc45)CC3)coc12` (centres unmarked) [Compound 41, 3-{1-[2-(7-methoxy-1-benzofuran-3-yl)-1-methylethyl]-1,2,3,6-tetrahydro-4-pyridinyl}-1H-indole]: the results for the Ki on human 5-HT1A receptors, on 5-HT transporter and on Human 5-HT Transporter were 11.5 nM, 8.93 nM and 68.8 nM, respectively.
In the case of `c1ccc2c(c1)ccc1c(CCN3CCC(c4c[nH]c5ccccc45)CC3)coc12` [Compound 34, 3-{1-(2-Naphtho[1,2-b]furan-3-yl-ethyl)-piperidin-4-yl]-1H-indole], the inhibition at 1 µM on human 5-HT1A receptors stood at 48%. Moreover, the Ki came to 62 nM at 5-HT transporter (setting [1]) and 276 nM at Human 5-HT Transporter.
For `Clc1ccc2occ(CCN3CC=C(c4cnc5ccccn45)CC3)c2c1` [Compound 44, 3-{1-[2-(5-chloro-1-benzofuran-3-yl)ethyl]-1,2,3,6-tetrahydropyridin-4-yl}imidazo[1,2-a]pyridine], the inhibition at 1 µM on human 5-HT1A receptors was 44%. Moreover, the Ki at 5-HT transporter turned out to be 97 nM; on Human 5-HT Transporter, 63.8 nM.
For the compound `COc1cccc2c(CC(C)N3CC=C(c4c[nH]c5cc(F)ccc45)CC3)coc12` (centres unmarked) [Compound 42, 3-{1-[2-(7-methoxy-1-benzofuran-3-yl)-1-methylethyl]-1,2,3,6-tetrahydro-4-pyridinyl}-6-fluoro-1H-indole], the inhibition constant Ki on human 5-HT1A receptors was 69.4 nM; at 5-HT transporter it was 3.74 nM; at Human 5-HT Transporter it was 48.7 nM.
In the case of `C=CCn1cc(C2=CCN(CCc3csc4ccc(Cl)cc34)CC2)c2ccccc21` [Compound 32, 3-{1-[2-(5-chloro-1-benzothiophene-3-yl)ethyl]-1,2,3,6-tetrahydro-4-pyridinyl}-1-(2-propenyl)-1H-indole], the inhibition at 1 µM on human 5-HT1A receptors stood at 34%. The Ki at 5-HT transporter (setting [1]) stood at 132 nM.
`C1=C(c2c[nH]c3ccccc23)CCN(CCc2csc3ccccc23)C1` [Compound 28, 3-{1-[2-(1-benzothiophene-3-yl)ethyl]-1,2,3,6-tetrahydro-4-pyridinyl}-1H-indole] yielded a melting point of 195 to 198 °C. Further, at human 5-HT1A receptors, the affinity, expressed as Ki, was 67.9 nM. The compound also had a Ki at 5-HT transporter of 6.25 nM. This compound also registered an inhibition constant Ki at Human 5-HT Transporter of 11.1 nM.
Taken in the same sequence, the figures for `COc1ccc2c(CCN3CC=C(c4c[nH]c5cc(C#N)ccc45)CC3)coc2c1` [Compound 13, 3-{1-[2-(6-methoxy-1-benzofuran-3-yl)ethyl]-1,2,3,6-tetrahydro-4-pyridinyl}-6-cyano-1H-indole] were 181 °C, 12.7 nM, 3.36 nM and 34.1 nM.
Regarding `Cn1cc(C2=CCN(CCc3csc4ccc(Cl)cc34)CC2)c2ccccc21` [Compound 33, 3-{1-[2-(5-chloro-1-benzothiophene-3-yl)ethyl]-1,2,3,6-tetrahydro-4-pyridinyl}-1-methyl-1H-indole], the inhibition at 1 µM at human 5-HT1A receptors was 45%. Moreover, on 5-HT transporter, the Ki stood at 39 nM.
On to `Cn1cc(C2=CCN(CCc3coc4ccccc34)CC2)c2ccccc21` [Compound 2, 3-{1-[2-(1-benzofuran-3-yl)ethyl]-1,2,3,6-tetrahydro-4-pyridinyl}-1-methyl-1H-indole], for which the Ki at human 5-HT1A receptors stood at 18.3 nM; at 5-HT transporter, 6 nM.
Take `CC(CN1CC=C(c2c[nH]c3ccc(F)cc23)CC1)c1coc2ccccc12` (centres unmarked) [Compound 37, 3-{1-[2-(1-benzofuran-3-yl)propyl]-1,2,3,6-tetrahydro-4-pyridinyl}-5-fluoro-1H-indole]: on human 5-HT1A receptors, the inhibition at 1 µM came out at 20%. Also, the inhibition constant Ki is 21 nM on 5-HT transporter and 152 nM at Human 5-HT Transporter.
On to `COc1ccc2occ(CC(C)N3CC=C(c4c[nH]c5ccccc45)CC3)c2c1` (centres unmarked) [Compound 43, 3-{1-[2-(5-methoxy-1-benzofuran-3-yl)-1-methylethyl]-1,2,3,6-tetrahydro-4-pyridinyl}-1H-indole], for which the inhibition at 1 µM on human 5-HT1A receptors was found to be 34%. Also, the Ki at 5-HT transporter worked out at 12 nM; on Human 5-HT Transporter, 144 nM.
The matching figures for `CC(CN1CC=C(c2c[nH]c3cc(F)ccc23)CC1)c1coc2ccccc12` (centres unmarked) [Compound 36, 3-{1-[2-(1-benzofuran-3-yl)propyl]-1,2,3,6-tetrahydro-4-pyridinyl}-6-fluoro-1H-indole]: 11%, 4.43 nM and 42 nM.
